In patent US20250361253A1, “STING AGONIST COMPOUNDS” (Sutro Biopharma, Inc., priority 2022, published 2025) one finds EC50 data, which are given here for 20 molecules.

Molecules are shown by their SMILES. pEC50: −log10 of the molar value.

For experiment [1], the target named is T1, mSTING (Mus musculus, UniProt Q3TBT3).
T1 construct: host or cells: 293-Dual (HEK293-derived) reporter cells
T1 sequence (Q3TBT3 1-378): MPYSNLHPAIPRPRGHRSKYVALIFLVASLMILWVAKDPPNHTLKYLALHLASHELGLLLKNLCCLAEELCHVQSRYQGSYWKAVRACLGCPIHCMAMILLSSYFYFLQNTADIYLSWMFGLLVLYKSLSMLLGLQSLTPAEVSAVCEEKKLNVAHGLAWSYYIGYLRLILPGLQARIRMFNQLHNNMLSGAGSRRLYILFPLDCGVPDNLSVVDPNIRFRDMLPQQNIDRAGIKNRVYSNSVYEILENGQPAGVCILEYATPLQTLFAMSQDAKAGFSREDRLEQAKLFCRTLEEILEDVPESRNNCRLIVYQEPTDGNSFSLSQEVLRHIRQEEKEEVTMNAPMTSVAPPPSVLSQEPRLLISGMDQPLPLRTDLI
The experiment is described as follows: ISG reporter induction in 293-Dual mSTING reporter cells (QUANTI-Blue). It is filed as cell-based. To be noted: 293-Dual mSTING cells, overnight incubation. How it is done: (§1) Certain STING compounds of the disclosure were evaluated in an in vitro cell based assay.
(§2) 293-Dual hSTING-R232 and mSTING cells (Invivogen) were seeded at 25,000 cells/well (50 ul) and co-cultured with STING agonists (2× concentration, 50 ul) in clear, half-area, 96-well polystyrene plates. Cells and test samples were prepared in DMEM supplemented with 10% FBS, Glutamax, and PenStrep. After overnight incubation at 37 C in a CO2 incubator, 20 ul of supernatant was added to QUANTI-Blue detection reagent (Invivogen). After one hour incubation at 37 C, plates were read at 640/650 nm on EnVision plate reader (PerkinElmer). OD values were plotted by log(agonist) vs. response, variable slope, four parameter curve fit (Log transform) using GraphPad Prism software to determine EC50 values.

Experiment [2] addresses T2, hSTING-R232 (Homo sapiens, UniProt Q86WV6, H232R).
T2 construct: host or cells: 293-Dual (HEK293-derived) reporter cells
Description: ISG reporter induction in 293-Dual hSTING-R232 reporter cells (QUANTI-Blue). To be noted: 293-Dual hSTING-R232 cells, overnight incubation. It counts as cell-based. How it is done:
as §1, §2

T2 sequence (Q86WV6 whole entry H232R): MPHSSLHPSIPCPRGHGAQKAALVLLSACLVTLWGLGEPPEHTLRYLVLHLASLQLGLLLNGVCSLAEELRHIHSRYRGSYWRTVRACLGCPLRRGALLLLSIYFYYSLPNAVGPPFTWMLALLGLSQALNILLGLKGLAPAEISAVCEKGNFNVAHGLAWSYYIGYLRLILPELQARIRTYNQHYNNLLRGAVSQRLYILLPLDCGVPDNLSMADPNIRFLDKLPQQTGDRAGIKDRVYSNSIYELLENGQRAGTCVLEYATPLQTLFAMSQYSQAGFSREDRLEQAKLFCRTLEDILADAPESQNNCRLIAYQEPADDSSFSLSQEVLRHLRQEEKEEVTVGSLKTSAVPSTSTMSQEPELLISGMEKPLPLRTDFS

Consider `COC(=O)C(C)(C)CC(=O)c1cc2c(F)c(OCCCOc3c(OC)cc4sc(C(=O)CS(=O)(=O)O)cc4c3F)c(OC)cc2s1` [Compound 2, 2-(4-Fluoro-5-(3-((4-fluoro-6-methoxy-2-(4-methoxy-3,3-dimethyl-4-oxobutanoyl)benzo[b]thiophen-5-yl)oxy)propoxy)-6-methoxybenzo[b]thiophen-2-yl)-2-oxoethane-1-sulfonic acid], for which the pEC50 in experiment [1] is 6.82 to 7.30; in experiment [2] it was below 6.82.
The matching figures for `COC(=O)C(C)(C)CC(=O)c1cc2c(F)c(OCCCOc3c(OC)cc4sc(C(=O)CP(=O)(OC)OC)cc4c3F)c(OC)cc2s1` [Compound 3, Methyl 4-(5-(3-((2-(2-(dimethoxyphosphoryl)acetyl)-4-fluoro-6-methoxybenzo[b]thiophen-5-yl)oxy)propoxy)-4-fluoro-6-methoxybenzo[b]thiophen-2-yl)-2,2-dimethyl-4-oxobutanoate]: below 6.82 and below 6.82.
The matching figures for `COc1cc2sc(C(=O)CC(C)(C)C(=O)O)cc2c(F)c1OCCCOc1c(OC)cc2sc(C(=O)CP(=O)(OC)OC)cc2c1F` [Compound 4, 4-(5-(3-((2-(2-(Dimethoxyphosphoryl)acetyl)-4-fluoro-6-methoxybenzo[b]thiophen-5-yl)oxy)propoxy)-4-fluoro-6-methoxybenzo[b]thiophen-2-yl)-2,2-dimethyl-4-oxobutanoic acid]: 6.82 to 7.30 and below 6.82.
On to `COc1cc2sc(C(=O)CC(C)(C)C(=O)O)cc2c(F)c1OCCCOc1c(OC)cc2sc(C(=O)CC(C)(C)P(=O)(O)O)cc2c1F` [Compound 9, 4-(4-Fluoro-5-(3-((4-fluoro-6-methoxy-2-(3-methyl-3-phosphonobutanoyl)benzo[b]thiophen-5-yl)oxy)propoxy)-6-methoxybenzo[b]thiophen-2-yl)-2,2-dimethyl-4-oxobutanoic acid], for which the pEC50 in experiment [1] and in experiment [2] was below 6.82 in each case.
In the case of `COC(=O)C(C)(C)CC(=O)c1cc2c(F)c(OCCCOc3c(OC)cc4sc(C(=O)CC(C)(C)P(=O)(O)O)cc4c3F)c(OC)cc2s1` [Compound 10], the pEC50 in experiment [1] and in experiment [2] was below 6.82 each time.
On to `COc1cc2sc(/C=C/CC(=O)O)cc2c(F)c1OCCCOc1c(OC)cc2sc(C(=O)CC(C)(C)C(=O)O)cc2c1F` [Compound 11, (E)-4-(5-(3-((2-(3-carboxy-3-methylbutanoyl)-4-fluoro-6-methoxybenzo[b]thiophen-5-yl)oxy)propoxy)-4-fluoro-6-methoxybenzo[b]thiophen-2-yl)but-3-enoic acid], for which the pEC50 in experiment [1] and in experiment [2] was at least 7.30 each time.
For `COc1cc2sc(C(=O)CC(C)(C)C(=O)O)cc2c(F)c1OCCCOc1c(OC)cc2sc(C3CC3CC(=O)O)cc2c1F` (stereo not shown) [Compound 12, 4-(5-(3-((2-(2-(carboxymethyl)cyclopropyl)-4-fluoro-6-methoxybenzo[b]thiophen-5-yl)oxy)propoxy)-4-fluoro-6-methoxybenzo[b]thiophen-2-yl)-2,2-dimethyl-4-oxobutanoic acid], the pEC50 in experiment [1] was 6.82 to 7.30; in experiment [2], below 6.82.
Taken in the same sequence, the figures for `COc1cc2sc(C(=O)CC(C)(C)C(=O)O)cc2c(F)c1OCCCOc1ccc2cc(C(=O)CCC(=O)O)ccc2c1` [Compound 13, 4-(5-(3-((6-(3-Carboxypropanoyl)naphthalen-2-yl)oxy)propoxy)-4-fluoro-6-methoxybenzo[b]thiophen-2-yl)-2,2-dimethyl-4-oxobutanoic acid] were 6.82 to 7.30 and 6.82 to 7.30.
Take `COc1cc2sc(C(=O)CCS(=O)(=O)O)cc2c(F)c1OCCCOc1c(OC)cc2sc(C(=O)CC(C)(C)C(=O)O)cc2c1F` [Compound 14, 4-(4-fluoro-5-(3-((4-fluoro-6-methoxy-2-(3-sulfopropanoyl)benzo[b]thiophen-5-yl)oxy)propoxy)-6-methoxybenzo[b]thiophen-2-yl)-2,2-dimethyl-4-oxobutanoic acid]: the pEC50 was at least 7.30 in experiment [1] and below 6.82 in experiment [2].
As to `COc1cc2sc(C(=O)CC(C)(C)C(=O)O)cc2c(F)c1OCCCOc1ccc2cc(C(=O)CCC(=O)O)ccc2c1F` [Compound 15, 4-(5-(3-((6-(3-Carboxypropanoyl)-1-fluoronaphthalen-2-yl)oxy)propoxy)-4-fluoro-6-methoxybenzo[b]thiophen-2-yl)-2,2-dimethyl-4-oxobutanoic acid], the pEC50 in experiment [1] and in experiment [2] was below 6.82 each time.
With `COc1cc2cc(C(=O)CCC(=O)O)ccc2c(F)c1OCCCOc1c(OC)cc2sc(C(=O)CC(C)(C)C(=O)O)cc2c1F` [Compound 16, 4-(5-(3-((6-(3-Carboxypropanoyl)-1-fluoro-3-methoxynaphthalen-2-yl)oxy)propoxy)-4-fluoro-6-methoxybenzo[b]thiophen-2-yl)-2,2-dimethyl-4-oxobutanoic acid], the pEC50 in experiment [1] and in experiment [2] was below 6.82 each time.
Take `COc1cc2sc(C(=O)CC(C)(C)C(=O)O)cc2c(F)c1OCCCOc1c(OC)cc2sc(C(=O)CC(C)(C)C(=O)NS(=O)(=O)CCN)cc2c1F` [Compound 17, 4-(5-(3-((2-(4-((2-Aminoethyl)sulfonamido)-3,3-dimethyl-4-oxobutanoyl)-4-fluoro-6-methoxybenzo[b]thiophen-5-yl)oxy)propoxy)-4-fluoro-6-methoxybenzo[b]thiophen-2-yl)-2,2-dimethyl-4-oxobutanoic acid]: the negative logarithm of the EC50 (pEC50) in experiment [1] and in experiment [2] was below 6.82 each time.
For `COc1cc2sc(C(=O)CC(C)(C)C(=O)O)cc2c(F)c1OCCCOc1c(OC)cc2sc(C(=O)CC(C)(C)C(=O)NCCN)cc2c1F` [Compound 18], the pEC50 in experiment [1] and in experiment [2] was below 6.82 each time.
`COc1cc2sc(CCP(=O)(O)O)cc2c(F)c1OCCCOc1c(OC)cc2sc(C(=O)CC(C)(C)C(=O)O)cc2c1F` [Compound 19]: the negative-log EC50 (pEC50) in experiment [1] and in experiment [2] was below 6.82 in each case.
On to `COc1cc2sc(C(=O)CCC(=O)O)cc2c(F)c1OCCCOc1c(OC)cc2sc(C(=O)CP(=O)(O)O)cc2c1F` [Compound 20], for which the pEC50 in experiment [1] and in experiment [2] was at least 7.30 each time.
In the case of `COc1cc2sc(C(=O)CCP(=O)(O)O)cc2c(F)c1OCCCOc1c(OC)cc2sc(C(=O)CC(C)(C)C(=O)O)cc2c1F` [Compound 21], the pEC50 in experiment [1] was at least 7.30; in experiment [2], below 6.82.
For the molecule `COc1cc2cc(C(=O)CCC(=O)O)ccc2cc1OCCCOc1c(OC)cc2sc(C(=O)CC(C)(C)C(=O)O)cc2c1F` [Compound 22], the pEC50 in experiment [1] and in experiment [2] was below 6.82 each time.
As to `COc1cc2nc(C(=O)CCC(=O)O)ccc2c(F)c1OCCCOc1c(OC)cc2sc(C(=O)CC(C)(C)C(=O)O)cc2c1F` [Compound 23, 4-(5-(3-((2-(3-Carboxypropanoyl)-5-fluoro-7-methoxyquinolin-6-yl)oxy)propoxy)-4-fluoro-6-methoxybenzo[b]thiophen-2-yl)-2,2-dimethyl-4-oxobutanoic acid], the pEC50 in experiment [1] and in experiment [2] was at least 7.30 in each case.
In the case of `COc1cc2sc(/C=C/CC(=O)O)cc2c(F)c1OCCCOc1c(OC)cc2sc(C(=O)CP(=O)(O)O)cc2c1F` [Compound 32], the figures for the pEC50 in experiment [1] and in experiment [2] were below 6.82 and 6.82 to 7.30, respectively.
Consider `COc1cc2sc(/C=C/CC(=O)O)cc2c(F)c1OCCCOc1c(OC)cc2sc(/C=C/CC(=O)O)cc2c1F` [Compound 33], for which the negative-log EC50 (pEC50) in experiment [1] and in experiment [2] was below 6.82 in each case.
